Reference: ChEMBL document CHEMBL5550184, “Structure-activity relationships of middle-size cyclic peptides, KRAS inhibitors derived from an mRNA display” (Bioorg Med Chem, 2024)
Positions of bridges follow the written chain, without caps; N, C: chain ends. Non-standard residues stand in square brackets, D forms with d. Residues, ends and D or L forms follow the SMILES beside them. *: point of attachment. hPhe(3-Cl-4-CF3) = N[C@@H](CCc1ccc(C(F)(F)F)c(Cl)c1)C(=O)O; NMeGly(cPent) = CN[C@H](C(=O)O)C1CCCC1; NMeCha = CN[C@@H](CC1CCCCC1)C(=O)O; NMeD = CN[C@@H](CC(=O)O)C(=O)O; NMeL = CN[C@@H](CC(C)C)C(=O)O; Morpholide = C1CN(*)CCO1; NMeA = CN[C@@H](C)C(=O)O; Piperidide = C1CCN(*)CC1; Ac5c = NC1(C(=O)O)CCCC1; Aze = O=C(O)[C@@H]1CCN1; Sar = CNCC(=O)O

Experiments:
[1] = Inhibition of biotin-tagged KRAS G12D mutant (unknown origin) to recombinant His-tagged SOS1 (unknown origin) protein-protein interaction incubated for 120 mins by AlphaLISA method; parameters: species or system Homo sapiens
[2] = biological target: GTPase KRas (Homo sapiens, UniProt P01116, G12D); assay: Binding affinity to biotinylated KRAS G12D mutant (unknown origin) incubated for 120 mins by SPR analysis
[3] = test system: ASPC1; assay: Cytotoxicity against human AsPC1 cells assessed as reduction in cell viability incubated for 7 days by CellTiterGlo Luminescent Cell Viability Assay; assay type: functional, cell-based; settings: ASPC1, 168 h
[4] = Apparent permeability in human Caco-2 cells incubated for 180 mins by LC-MS/MS method; assay type: ADME, cell-based
[5] = Half-life in BALB/c nude mouse at 1 mg/kg, iv measured upto 24 hrs by LC-MS/MS analysis; assay type: ADME, organism-based; settings: in vivo
[6] = Half-life in BALB/c nude mouse at 20 mg/kg, po measured upto 24 hrs by LC-MS/MS analysis; assay type: ADME, organism-based; settings: in vivo
[7] = Half-life in Wistar Hannover rat at 1 mg/kg, iv measured upto 24 hrs by LC-MS/MS analysis; assay type: ADME, organism-based; settings: in vivo
[8] = Half-life in Wistar Hannover rat at 10 mg/kg, po measured upto 48 hrs by LC-MS/MS analysis; assay type: ADME, organism-based; settings: in vivo
[9] = Half-life in Cynomolgus monkey at 0.168 mg/kg, iv measured upto 24 hrs by LC-MS/MS analysis; assay type: ADME, organism-based, Macaca fascicularis; settings: in vivo
[10] = Half-life in Cynomolgus monkey at 10 mg/kg, po measured upto 48 hrs by LC-MS/MS analysis; assay type: ADME, organism-based, Macaca fascicularis; settings: in vivo
[11] = AUCinfinity in BALB/c nude mouse at 1 mg/kg, iv measured upto 24 hrs by LC-MS/MS analysis; assay type: ADME, organism-based; settings: in vivo
[12] = AUCinfinity in BALB/c nude mouse at 20 mg/kg, po measured upto 24 hrs by LC-MS/MS analysis; assay type: ADME, organism-based; settings: in vivo
[13] = AUCinfinity in Wistar Hannover rat at 1 mg/kg, iv measured upto 24 hrs by LC-MS/MS analysis; assay type: ADME, organism-based; settings: in vivo
[14] = AUCinfinity in Wistar Hannover rat at 10 mg/kg, po measured upto 48 hrs by LC-MS/MS analysis; assay type: ADME, organism-based; settings: in vivo
[15] = AUCinfinity in Cynomolgus monkey at 0.168 mg/kg, iv measured upto 24 hrs by LC-MS/MS analysis; assay type: ADME, organism-based, Macaca fascicularis; settings: in vivo
[16] = AUCinfinity in Cynomolgus monkey at 10 mg/kg, po measured upto 48 hrs by LC-MS/MS analysis; assay type: ADME, organism-based, Macaca fascicularis; settings: in vivo
[17] = Clearance in BALB/c nude mouse at 1 mg/kg, iv measured upto 24 hrs by LC-MS/MS analysis; assay type: ADME, organism-based; settings: in vivo
[18] = Clearance in Cynomolgus monkey at 0.168 mg/kg, iv measured upto 24 hrs by LC-MS/MS analysis; assay type: ADME, organism-based, Macaca fascicularis; settings: in vivo
[19] = Volume of distribution at steady state in BALB/c nude mouse at 1 mg/kg, iv measured upto 24 hrs by LC-MS/MS analysis; assay type: ADME, organism-based; settings: in vivo, read-out: Vdss
[20] = Volume of distribution at steady state in Wistar Hannover rat at 1 mg/kg, iv measured upto 24 hrs by LC-MS/MS analysis; assay type: ADME, organism-based; settings: in vivo
[21] = Volume of distribution at steady state in Cynomolgus monkey at 0.168 mg/kg, iv measured upto 24 hrs by LC-MS/MS analysis; assay type: ADME, organism-based, Macaca fascicularis; settings: in vivo, read-out: Vdss
[22] = Oral bioavailability in BALB/c nude mouse at 20 mg/kg measured upto 24 hrs by LC-MS/MS analysis; assay type: ADME, organism-based; settings: in vivo
[23] = Oral bioavailability in Wistar Hannover rat at 10 mg/kg measured upto 48 hrs by LC-MS/MS analysis; assay type: ADME, organism-based; settings: in vivo
[24] = Oral bioavailability in Cynomolgus monkey at 10 mg/kg measured upto 24 hrs by LC-MS/MS analysis; assay type: ADME, organism-based, Macaca fascicularis; settings: in vivo
[25] = Metabolic stability in human liver microsomes assessed as intrinsic clearance per mg protein at 0.2 uM measured upto 30 mins by LC-MS/MS analysis; assay type: ADME, Microsome; settings: read-out: CLH
[26] = Metabolic stability in mouse liver microsomes assessed as intrinsic clearance per mg protein at 0.2 uM measured upto 30 mins by LC-MS/MS analysis; assay type: ADME, Microsome; settings: read-out: CLH
[27] = Metabolic stability in rat liver microsomes assessed as intrinsic clearance per mg protein at 0.2 uM measured upto 30 mins by LC-MS/MS analysis; assay type: ADME, Microsome; settings: read-out: CLH
[28] = Metabolic stability in monkey liver microsomes assessed as intrinsic clearance per mg protein at 0.2 uM measured upto 30 mins by LC-MS/MS analysis; assay type: ADME, Macaca mulatta, Microsome; settings: rhesus monkey, read-out: CLH
[29] = Half-life in Cynomolgus monkey at 0.167 mg/kg, iv measured upto 24 hrs by LC-MS/MS analysis; assay type: ADME, organism-based, Macaca fascicularis; settings: in vivo
[30] = Half-life in Cynomolgus monkey at 15 mg/kg, po measured upto 48 hrs by LC-MS/MS analysis; assay type: ADME, organism-based, Macaca fascicularis; settings: in vivo
[31] = AUCinfinity in Cynomolgus monkey at 0.167 mg/kg, iv measured upto 24 hrs by LC-MS/MS analysis; assay type: ADME, organism-based, Macaca fascicularis; settings: in vivo
[32] = AUCinfinity in Cynomolgus monkey at 15 mg/kg, po measured upto 48 hrs by LC-MS/MS analysis; assay type: ADME, organism-based, Macaca fascicularis; settings: in vivo
[33] = Clearance in Wistar Hannover rat at 1 mg/kg, iv measured upto 24 hrs by LC-MS/MS analysis; assay type: ADME, organism-based; settings: in vivo
[34] = Clearance in Cynomolgus monkey at 0.167 mg/kg, iv measured upto 24 hrs by LC-MS/MS analysis; assay type: ADME, organism-based, Macaca fascicularis; settings: in vivo
[35] = Volume of distribution at steady state in Cynomolgus monkey at 0.167 mg/kg, iv measured upto 24 hrs by LC-MS/MS analysis; assay type: ADME, organism-based, Macaca fascicularis; settings: in vivo, read-out: Vdss
[36] = Oral bioavailability in Cynomolgus monkey at 15 mg/kg measured upto 48 hrs by LC-MS/MS analysis; assay type: ADME, organism-based, Macaca fascicularis; settings: in vivo

Chain of GTPase KRas (P01116 whole entry G12D): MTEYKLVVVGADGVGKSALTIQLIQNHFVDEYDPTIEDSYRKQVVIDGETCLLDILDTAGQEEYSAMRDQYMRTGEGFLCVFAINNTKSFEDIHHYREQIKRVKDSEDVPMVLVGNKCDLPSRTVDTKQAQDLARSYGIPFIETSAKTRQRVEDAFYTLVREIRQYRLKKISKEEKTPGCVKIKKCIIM

Compound | IC50 [1] [nM] | Kd [2] [nM] | IC50 [3] [nM] | Papp at 3 h [4] [×10⁻⁶ cm/s] | half-life [5] [h] | half-life [6] [h] | half-life [8] [h] | AUC(0-inf) [13] [ng·h/mL] | AUC(0-inf) [14] [ng·h/mL] | clearance [17] [mL/min/kg] | Vd [19] [L/kg] | bioavailability [23] [%] | microsomal CLint at 0.2 µM [25] [µL/min/mg] | microsomal CLint at 0.2 µM [26] [µL/min/mg] | microsomal CLint at 0.2 µM [27] [µL/min/mg] | microsomal CLint at 0.2 µM [28] [µL/min/mg] | also measured
CC[C@H](C)[C@@H]1NC(=O)[C@H](CC(C)C)N(C)C(=O)C[C@@H](C(=O)N2CCCCC2)N(C)C(=O)[C@H](C2CCCC2)N(C)C(=O)C2(CCCC2)NC(=O)[C@@H]2CCCN2C(=O)[C@H](CCc2ccc(C(F)(F)F)c(Cl)c2)NC(=O)CN(C)C(=O)[C@H](CC2CCCCC2)N(C)C(=O)[C@@H]2CCN2C(=O)[C@H](C)N(C)C1=O ([NMeL]I[NMeA][Aze][NMeCha][Sar][hPhe(3-Cl-4-CF3)]P[Ac5c][NMeGly(cPent)][NMeD]-Piperidide; lactam N-11) | < 2 | 0.47 | 18 | 0.61 | 8.62 | 6.46 | 3.95 | 7970 | 5770 | 5.9 | 0.85 | 5.7 | 18 | 24 | 28 | 32 | t1/2 ([7]; iv, 1 mg/kg, 24 h): 6.23 h; half-life [9]: 7.3 h; half-life [10]: 8.65 h; AUC ([11]; iv, 1 mg/kg, 24 h): 2860 ng·h/mL; AUC ([12]; po, 20 mg/kg, 24 h): 3270 ng·h/mL; AUC(0-inf) [15]: 1590 ng·h/mL; AUC(0-inf) [16]: 10700 ng·h/mL; clearance [18]: 1.81 mL/min/kg; Vdss ([20]; iv, 1 mg/kg, 24 h): 2.6 L/kg; Vd [21]: 0.49 L/kg; F ([22]; po, 20 mg/kg, 24 h): 16%; bioavailability [24]: 11%
CC[C@H](C)[C@@H]1NC(=O)[C@H](CC(C)C)N(C)C(=O)C[C@@H](C(=O)N2CCOCC2)N(C)C(=O)[C@H](C2CCCC2)N(C)C(=O)C2(CCCC2)NC(=O)[C@@H]2CCCN2C(=O)[C@H](CCc2ccc(C(F)(F)F)c(Cl)c2)NC(=O)CN(C)C(=O)[C@H](CC2CCCCC2)N(C)C(=O)[C@@H]2CCN2C(=O)[C@H](C)N(C)C1=O ([NMeL]I[NMeA][Aze][NMeCha][Sar][hPhe(3-Cl-4-CF3)]P[Ac5c][NMeGly(cPent)][NMeD]-Morpholide; lactam N-11) | < 2 | 0.18 | 4.8 | 1.74 | 5.98 | 4.16 | 3.96 | 2140 | 3520 | 12.4 | 3 | 21 | 26 | 27 | 28 | 43 | half-life ([7]; Wistar Hannover): 5.57 h; half-life [29]: 8.14 h; half-life [30]: 7.71 h; AUC(0-inf) ([11]; BALB/c nude): 1350 ng·h/mL; AUC(0-inf) ([12]; BALB/c nude): 3880 ng·h/mL; AUC [31]: 673 ng·h/mL; AUC [32]: 12500 ng·h/mL; clearance [33]: 7.81 mL/min/kg; clearance [34]: 4.3 mL/min/kg; Vd ([20]; Wistar Hannover, read-out: Vdss): 0.82 L/kg; Vd [35]: 0.37 L/kg; bioavailability ([22]; BALB/c nude): 14%; F [36]: 7.2%
